Measurements: patent publication US12291519B2, “2-hydroxycycloalkane-1-carbamoyl” (Idorsia Pharmaceuticals Ltd, priority 2019, dated 2025)

Legend:
human Gal-3 (hGal-3) = human Gal-3 (hGal-3) (Homo sapiens (Human), UniProt P17931); assay: Competitive binding assay: biotinylated hGal-3 binding to microplate-adsorbed asialofetuin (ASF); conditions: Activity on hGal-3; binding of biotinylated hGal-3 to ASF-coated plates; mean values
How it was run: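 Serially diluted compounds competed with biotinylated human Gal-3 for binding to plate-adsorbed asialofetuin over 3 h at 4 °C. Bound Gal-3 was detected with streptavidin-peroxidase (80 ng/mL, 1 h, 4 °C) and ABTS substrate. IC50 values are means of several measurements.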

human Gal-1 (hGal-1) = assay: Competitive binding assay: biotinylated hGal-1 binding to microplate-adsorbed asialofetuin (ASF); conditions: Activity on hGal-1; binding of biotinylated hGal-1 to ASF-coated plates; mean values
Chain of human Gal-1 (hGal-1) (P09382 2-135 limits assumed): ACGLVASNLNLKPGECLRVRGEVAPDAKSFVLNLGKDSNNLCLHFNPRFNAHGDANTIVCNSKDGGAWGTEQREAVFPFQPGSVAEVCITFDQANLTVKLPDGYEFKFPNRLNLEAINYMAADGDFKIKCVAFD
How it was run: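 Inhibition measured as loss of hGal-1 (biotinylated, 300–1000 ng/mL, wild type or Cys→Ser mutant) binding to adsorbed asialofetuin over 3 h at 4 °C. Bound lectin detected with streptavidin-HRP and ABTS (410 nm, 30–45 min); IC50 values averaged across repeat measurements.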

Chain of human Gal-3 (hGal-3) (P17931 whole entry): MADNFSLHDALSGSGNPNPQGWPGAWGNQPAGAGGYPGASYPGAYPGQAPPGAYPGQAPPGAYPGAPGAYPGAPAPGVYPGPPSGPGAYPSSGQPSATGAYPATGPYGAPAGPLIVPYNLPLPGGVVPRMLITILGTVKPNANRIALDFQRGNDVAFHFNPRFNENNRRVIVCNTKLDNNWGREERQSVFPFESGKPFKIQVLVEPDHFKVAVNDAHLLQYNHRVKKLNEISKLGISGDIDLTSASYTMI

| Structure (SMILES) | IC50 (human Gal-3 (hGal-3)) [nM] | IC50 (human Gal-1 (hGal-1)) [nM] |
| --- | --- | --- |
| CO[C@@H]1[C@@H](n2cc(-c3ccc(Cl)c(F)c3F)nn2)[C@@H](O)[C@@H](CO)O[C@H]1C(=O)N(c1cc(Cl)cc(C#N)c1)[C@H]1CCCC[C@@H]1O [Example 178, (2R,3R,4S,5R,6R)-4-(4-(4-chloro-2,3-difluorophenyl)-1H-1,2,3-triazol-1-yl)-N-(3-chloro-5-cyanophenyl)-5-hydroxy-N-((1S,2S)-2-hydroxycyclohexyl)-6-(hydroxymethyl)-3-methoxytetrahydro-2H-pyran-2-carboxamide] | 26 | 123 |
| CO[C@@H]1[C@@H](n2cc(-c3ccc(Cl)c(F)c3)nn2)[C@@H](O)[C@@H](CO)O[C@H]1C(=O)N(c1cc(Cl)cc(Cl)c1)[C@H]1CCCC[C@@H]1O [Example 179, (2R,3R,4S,5R,6R)-4-(4-(4-chloro-3-fluorophenyl)-1H-1,2,3-triazol-1-yl)-N-(3,5-dichlorophenyl)-5-hydroxy-N-((1S,2S)-2-hydroxycyclohexyl)-6-(hydroxymethyl)-3-methoxytetrahydro-2H-pyran-2-carboxamide] | 10 | 591 |
| CO[C@@H]1[C@@H](n2cc(-c3ccc(C#N)c(F)c3)nn2)[C@@H](O)[C@@H](CO)O[C@H]1C(=O)N(c1cc(Cl)cc(C#N)c1)[C@H]1CCCC[C@@H]1O [Example 181, (2R,3R,4S,5R,6R)-N-(3-chloro-5-cyanophenyl)-4-(4-(4-cyano-3-fluorophenyl)-1H-1,2,3-triazol-1-yl)-5-hydroxy-N-((1S,2S)-2-hydroxycyclohexyl)-6-(hydroxymethyl)-3-methoxytetrahydro-2H-pyran-2-carboxamide] | 29 | 618 |
| CO[C@@H]1[C@@H](n2cc(-c3ccc(Cl)c(OC(F)(F)F)c3)nn2)[C@@H](O)[C@@H](CO)O[C@H]1C(=O)N(c1cc(Cl)cc(C#N)c1)[C@H]1CCCC[C@@H]1O [Example 185, (2R,3R,4S,5R,6R)-4-(4-(4-chloro-3-(trifluoromethoxy)phenyl)-1H-1,2,3-triazol-1-yl)-N-(3-chloro-5-cyanophenyl)-5-hydroxy-N-((1S,2S)-2-hydroxycyclohexyl)-6-(hydroxymethyl)-3-methoxytetrahydro-2H-pyran-2-carboxamide] | 232 | 1370 |
| CO[C@@H]1[C@@H](n2cc(-c3ccc(Cl)c(Cl)c3)nn2)[C@@H](O)[C@@H](CO)O[C@H]1C(=O)N(c1cc(Cl)cc(C#N)c1)[C@H]1CCCC[C@@H]1O [Example 186, (2R,3R,4S,5R,6R)-N-(3-chloro-5-cyanophenyl)-4-(4-(3,4-dichlorophenyl)-1H-1,2,3-triazol-1-yl)-5-hydroxy-N-((1S,2S)-2-hydroxycyclohexyl)-6-(hydroxymethyl)-3-methoxytetrahydro-2H-pyran-2-carboxamide] | 17 | 210 |
| CO[C@@H]1[C@@H](n2cc(-c3ccc(Cl)c(Cl)c3)nn2)[C@@H](O)[C@@H](CO)O[C@H]1C(=O)N(c1cc(F)cc(C#N)c1)[C@H]1CCCC[C@@H]1O [Example 187, (2R,3R,4S,5R,6R)-N-(3-cyano-5-fluorophenyl)-4-(4-(3,4-dichlorophenyl)-1H-1,2,3-triazol-1-yl)-5-hydroxy-N-((1S,2S)-2-hydroxycyclohexyl)-6-(hydroxymethyl)-3-methoxytetrahydro-2H-pyran-2-carboxamide] | 37 | 359 |
| CO[C@@H]1[C@@H](n2cc(-c3ccc(Cl)c(Cl)c3)nn2)[C@@H](O)[C@@H](CO)O[C@H]1C(=O)N(c1cc(Cl)cc(Cl)c1)[C@H]1CCCC[C@@H]1O [Example 189, (2R,3R,4S,5R,6R)-N-(3,5-dichlorophenyl)-4-(4-(3,4-dichlorophenyl)-1H-1,2,3-triazol-1-yl)-5-hydroxy-N-((1S,2S)-2-hydroxycyclohexyl)-6-(hydroxymethyl)-3-methoxytetrahydro-2H-pyran-2-carboxamide] | 11 | 257 |
| CO[C@@H]1[C@@H](n2cc(-c3cc(C)cc(F)c3)nn2)[C@@H](O)[C@@H](CO)O[C@H]1C(=O)N(c1cc(Cl)cc(C#N)c1)[C@H]1CCCC[C@@H]1O [Example 190, (2R,3R,4S,5R,6R)-N-(3-chloro-5-cyanophenyl)-4-(4-(3-fluoro-5-methylphenyl)-1H-1,2,3-triazol-1-yl)-5-hydroxy-N-((1S,2S)-2-hydroxycyclohexyl)-6-(hydroxymethyl)-3-methoxytetrahydro-2H-pyran-2-carboxamide] | 17 | 239 |
| CO[C@@H]1[C@@H](n2cc(-c3ccc4nc(C)sc4c3)nn2)[C@@H](O)[C@@H](CO)O[C@H]1C(=O)N(c1cc(Cl)cc(Cl)c1)[C@H]1CCCC[C@@H]1O [Example 191, (2R,3R,4S,5R,6R)-N-(3,5-dichlorophenyl)-5-hydroxy-N-((1S,2S)-2-hydroxycyclohexyl)-6-(hydroxymethyl)-3-methoxy-4-(4-(2-methylbenzo[d]thiazol-6-yl)-1H-1,2,3-triazol-1-yl)tetrahydro-2H-pyran-2-carboxamide] | 41 | 1140 |
| CO[C@@H]1[C@@H](n2cc(-c3ccc(F)c4ccccc34)nn2)[C@@H](O)[C@@H](CO)O[C@H]1C(=O)N(c1cc(Cl)cc(Cl)c1)[C@H]1CCCC[C@@H]1O [Example 192, (2R,3R,4S,5R,6R)-N-(3,5-dichlorophenyl)-4-(4-(4-fluoronaphthalen-1-yl)-1H-1,2,3-triazol-1-yl)-5-hydroxy-N-((1S,2S)-2-hydroxycyclohexyl)-6-(hydroxymethyl)-3-methoxytetrahydro-2H-pyran-2-carboxamide] | 21 | 1140 |
| CO[C@@H]1[C@@H](n2cc(-c3nc(Cl)cs3)nn2)[C@@H](O)[C@@H](CO)O[C@H]1C(=O)N(c1cccc(F)c1F)[C@H]1CCCC[C@@H]1O [Example 193, (2R,3R,4S,5R,6R)-4-(4-(4-chlorothiazol-2-yl)-1H-1,2,3-triazol-1-yl)-N-(2,3-difluorophenyl)-5-hydroxy-N-((1S,2S)-2-hydroxycyclohexyl)-6-(hydroxymethyl)-3-methoxytetrahydro-2H-pyran-2-carboxamide] | 143 | 605 |
| CO[C@@H]1[C@@H](n2cc(-c3cc(F)c(F)c(F)c3)nn2)[C@@H](O)[C@@H](CO)O[C@H]1C(=O)N(c1ccccn1)[C@H]1CCCC[C@@H]1O [Example 194, (2R,3R,4S,5R,6R)-5-hydroxy-N-((1S,2S)-2-hydroxycyclohexyl)-6-(hydroxymethyl)-3-methoxy-N-(pyridin-2-yl)-4-(4-(3,4,5-trifluorophenyl)-1H-1,2,3-triazol-1-yl)tetrahydro-2H-pyran-2-carboxamide] | 11 | 2740 |
| O=C(O)CO[C@@H]1[C@@H](n2cc(-c3cc(F)c(F)c(F)c3)nn2)[C@@H](O)[C@@H](CO)O[C@H]1C(=O)N(c1cc(Cl)cc(Cl)c1)[C@H]1CCCC[C@@H]1O [Example 195, 2-(((2R,3R,4S,5R,6R)-2-((3,5-dichlorophenyl)((1S,2S)-2-hydroxycyclohexyl)carbamoyl)-5-hydroxy-6-(hydroxymethyl)-4-(4-(3,4,5-trifluorophenyl)-1H-1,2,3-triazol-1-yl)tetrahydro-2H-pyran-3-yl)oxy)acetic acid] | 9 | 96 |
